# How the values were obtained:
# Type in all cases: in vivo, rat
# [1] = system: MK801 induced increase of anticipatory responses of rats; test: 5-Choice Serial Reaction Time task, interaction studies against MK801
# Excerpt: (§1) Male Wistar rats weighing 330-450 g (Harlan, The Netherlands) were housed in pairs under a 12-h light/dark cycle (lights off at 7:00 a.m.) and had daily access to a limited amount of food that kept their body weight at approximately 85% of the free feeding weight. Water was available ad libitum. All procedures were in compliance with the European Communities Council Directive of Nov. 24, 1986 (86/609 EEC).
# (§2) Standard 5-CSRT boxes from MED associates Inc. Georgia, Vt. US were used. The curved wall of the chamber contained five 1.6 cm2 holes, 2.2 cm deep, 2 cm above floor level. […] In every hole a yellow stimulus light was presented. A food dispenser was located at the opposite wall. The box was illuminated by a 28 Volt 100 mA house light. The 5-CSRT boxes were placed in sound attenuating cubicles. On-line control of the apparatus and data collection were performed by a MED-PC experimental apparatus programming system (Tatham, 1989), running on a Dell Optiplex GX1 PC.
# (§3) Rats were first trained to collect reinforcement pellets from the food dispenser and to collect reinforcements that were placed in the 5 holes in order to habituate the animals to the 5-CSRT task apparatus. Next, training of the 5-CSRT task started. These sessions started by illumination of the light in one of the holes for 30 seconds (stimulus duration). A response by the rat into the illuminated hole or a response in that particular hole for a short period of time after the illumination (the limited hold 60 sec) was rewarded with the delivery of a food pellet, termination of the trial and a correct response was recorded. The light stimulus was presented in each of the holes 20 times during a session (total of 100 presentations), and the order of presentations was randomized. […] After termination of the trial a variable inter-trial interval was started (1, 3, 5, 7 or 9 sec) after which the next trial was started. Upon reaching a 75% correct performance level the duration of illumination of the light stimulus was reduced until a presentation of 0.5 sec (from 30 to 20, 10, 5, 2, 1, 0.9; 0.8; 0.7; 0.6; 0.5.) and a limited hold of 5 sec (in three steps from 30 to 20, 10 and 5 sec), was reached. (Robbins, 1993).
# (§4) The following parameters were measured (Muir, 1996):
# (§5) Accuracy: the percentage correct responses divided by the total responses made.
# (§6) Errors of omission: the number of missed stimulus presentations.
# (§7) Correct responses: the number of correct responses.
# (§8) Fault responses: the number of responses in the wrong hole.
# (§9) Anticipatory responses: the number of premature responses made preceding the presentation of the light stimulus.
# (§10) Persevering responses: responses emitted after an incorrect or correct response.
# Both xanomeline and desmethylclozapine were each tested in the same dose range against 0.05 mg/kg (s.c.) MK801, a dose shown to elicit unequivocal impulsive behavior (see Table 1).
# Male Wistar rats [2] = test: 5-Choice Serial Reaction Time task, xanomeline or desmethylclozapine alone; details: for number of anticipatory responses / number of correct responses / number of fault responses / number of missed responses / percentage of correct responses / persevering responses / total number of responses: ±S.E.M.
# Excerpt: as §1, §2, §3, §4, §5, §6, §7, §8, §9, §10
# Xanomeline, a mixed muscarine-M1 and muscarine-M4 agonist, and desmethylclozapine, a muscarinic-M1 agonist and muscarinic-M4 antagonist, were each tested in a Latin hexagon design, meaning that each rat received all test-dosages (0, 1, 3 and 10 mg/kg i.p.) in a random order.
# Male Wistar rats [3] = test: 5-Choice Serial Reaction Time task, MK801 alone; details: for number of anticipatory responses / number of correct responses / number of fault responses / number of missed responses / percentage of correct responses / persevering responses / total number of responses: ±S.E.M.
# Excerpt: as §1, §2, §3, §4, §5, §6, §7, §8, §9, §10
# MK801 was tested in a Latin hexagon design, meaning that each rat received all test dosages (0, 0.01, 0.025 and 0.05 mg/kg s.c.) in a random order.
# [4] = 1 mg/kg against 0.05 mg/kg (s.c.) MK801, ±SEM
# [5] = 3 mg/kg against 0.05 mg/kg (s.c.) MK801, ±SEM
# [6] = 10 mg/kg against 0.05 mg/kg (s.c.) MK801, ±SEM
# [7] = evident at 0.025 mg/kg and 0.05 mg/kg, p<0.05
# [8] = first series, MK801 0.01 mg/kg s.c.
# [9] = first series, MK801 0.025 mg/kg s.c.
# [10] = first series, MK801 0.05 mg/kg s.c.
# [11] = second series, MK801 0.01 mg/kg s.c.
# [12] = second series, MK801 0.025 mg/kg s.c.
# [13] = second series, MK801 0.05 mg/kg s.c.
# [14] = 0.05 mg/kg (s.c.) MK801 with 0 mg/kg desmethylclozapine, ±SEM
# [15] = 0.05 mg/kg (s.c.) MK801 with 0 mg/kg xanomeline, ±SEM
compound,measurement,setting,value
Clc1ccc2c(c1)N=C(N1CCNCC1)c1ccccc1N2 [desmethylclozapine],% correct resp,[1]; [4],67.2 ± 2.6%
same,nr anticipatory resp,[1]; [4],141.8 ± 20.8
same,nr of correct resp,[1]; [4],52.5 ± 3.4
same,nr of fault resp,[1]; [4],25.1 ± 1.9
same,nr of missed resp,[1]; [4],22.4 ± 3.1
same,persevering resp,[1]; [4],24.8 ± 2.8
same,total nr of resp,[1]; [4],77.6 ± 3.1
same,% correct resp,[1]; [5],69.6 ± 2.6%
same,nr anticipatory resp,[1]; [5],104.3 ± 18.4
same,nr of correct resp,[1]; [5],55.2 ± 2.8
same,nr of fault resp,[1]; [5],24.4 ± 2.4
same,nr of missed resp,[1]; [5],20.4 ± 3.6
same,persevering resp,[1]; [5],16.3 ± 2.1
same,total nr of resp,[1]; [5],79.6 ± 3.6
same,% correct resp,[1]; [6],70.1 ± 3.1%
same,nr anticipatory resp,[1]; [6],78.6 ± 14.5
same,nr of correct resp,[1]; [6],52.7 ± 3.9
same,nr of fault resp,[1]; [6],21.6 ± 2.0
same,nr of missed resp,[1]; [6],25.8 ± 3.7
same,persevering resp,[1]; [6],17.3 ± 3.4
same,total nr of resp,[1]; [6],74.3 ± 3.7
same,effect on increase in anticipatory responses induced by MK801,[1]; table 3,antagonize
same,effect on increase in persevering responses induced by MK801,[1]; table 3,antagonize
same,number of anticipatory responses,Male Wistar rats [2]; 1 mg/kg i.p.,50.2 ± 4.9
same,number of correct responses,Male Wistar rats [2]; 1 mg/kg i.p.,52.2 ± 3.2
same,number of fault responses,Male Wistar rats [2]; 1 mg/kg i.p.,19.4 ± 2.2
same,number of missed responses,Male Wistar rats [2]; 1 mg/kg i.p.,28.4 ± 3.2
same,percentage of correct responses,Male Wistar rats [2]; 1 mg/kg i.p.,72.9 ± 3.1%
same,persevering responses,Male Wistar rats [2]; 1 mg/kg i.p.,7.8 ± 1.4
same,total number of responses,Male Wistar rats [2]; 1 mg/kg i.p.,71.6 ± 3.2
same,number of anticipatory responses,Male Wistar rats [2]; 3 mg/kg i.p.,51.3 ± 7.5
same,number of correct responses,Male Wistar rats [2]; 3 mg/kg i.p.,51.9 ± 3.1
same,number of fault responses,Male Wistar rats [2]; 3 mg/kg i.p.,20.1 ± 2.2
same,number of missed responses,Male Wistar rats [2]; 3 mg/kg i.p.,28.0 ± 2.2
same,percentage of correct responses,Male Wistar rats [2]; 3 mg/kg i.p.,71.9 ± 3.2%
same,persevering responses,Male Wistar rats [2]; 3 mg/kg i.p.,8.8 ± 1.2
same,total number of responses,Male Wistar rats [2]; 3 mg/kg i.p.,72.0 ± 2.2
same,number of anticipatory responses,Male Wistar rats [2]; 10 mg/kg i.p.,34.5 ± 3.9
same,number of correct responses,Male Wistar rats [2]; 10 mg/kg i.p.,48.5 ± 3.9
same,number of fault responses,Male Wistar rats [2]; 10 mg/kg i.p.,17.5 ± 2.0
same,number of missed responses,Male Wistar rats [2]; 10 mg/kg i.p.,34.0 ± 2.9
same,percentage of correct responses,Male Wistar rats [2]; 10 mg/kg i.p.,72.6 ± 3.6%
same,persevering responses,Male Wistar rats [2]; 10 mg/kg i.p.,5.5 ± 0.9
same,total number of responses,Male Wistar rats [2]; 10 mg/kg i.p.,66.0 ± 2.9
same,effect on number of anticipatory responses,"Male Wistar rats [2]; at 10 mg/kg, table 2",reduced
"CC12NC(Cc3ccccc31)c1ccccc12 (centres unmarked) [MK801, dizocilpine]",effect on missed responses,Male Wistar rats [3]; [7],decreased
same,effect on number of anticipatory responses,Male Wistar rats [3]; [7],boosted
same,effect on persevering responses,Male Wistar rats [3]; [7],boosted
same,effect on total number of responses,Male Wistar rats [3]; [7],boosted
same,number of anticipatory responses,Male Wistar rats [3]; [8],51.3 ± 5.4
same,number of correct responses,Male Wistar rats [3]; [8],52.6 ± 3.3
same,number of fault responses,Male Wistar rats [3]; [8],19.8 ± 2.2
same,number of missed responses,Male Wistar rats [3]; [8],27.7 ± 3.3
same,percentage of correct responses,Male Wistar rats [3]; [8],72.6 ± 2.8%
same,persevering responses,Male Wistar rats [3]; [8],7.9 ± 1
same,total number of responses,Male Wistar rats [3]; [8],72.3 ± 3.3
same,number of anticipatory responses,Male Wistar rats [3]; [9],73.2 ± 8.7
same,number of correct responses,Male Wistar rats [3]; [9],53.8 ± 3.9
same,number of fault responses,Male Wistar rats [3]; [9],22.6 ± 2.7
same,number of missed responses,Male Wistar rats [3]; [9],23.6 ± 2.9
same,percentage of correct responses,Male Wistar rats [3]; [9],70.0 ± 3.7%
same,persevering responses,Male Wistar rats [3]; [9],17.7 ± 4.1
same,total number of responses,Male Wistar rats [3]; [9],76.4 ± 2.9
same,number of anticipatory responses,Male Wistar rats [3]; [10],148.6 ± 38.6
same,number of correct responses,Male Wistar rats [3]; [10],55.3 ± 3.2^
same,number of fault responses,Male Wistar rats [3]; [10],26.0 ± 2.7^
same,number of missed responses,Male Wistar rats [3]; [10],18.7 ± 3.1
same,percentage of correct responses,Male Wistar rats [3]; [10],68.0 ± 3%
same,persevering responses,Male Wistar rats [3]; [10],28.2 ± 4.7
same,total number of responses,Male Wistar rats [3]; [10],81.3 ± 3.1
same,number of anticipatory responses,Male Wistar rats [3]; [11],78.1 ± 14.8
same,number of correct responses,Male Wistar rats [3]; [11],60.8 ± 2.1
same,number of fault responses,Male Wistar rats [3]; [11],21.8 ± 2.1
same,number of missed responses,Male Wistar rats [3]; [11],17.5 ± 2.1
same,percentage of correct responses,Male Wistar rats [3]; [11],73.8 ± 2.3%
same,persevering responses,Male Wistar rats [3]; [11],11.1 ± 3.1
same,total number of responses,Male Wistar rats [3]; [11],82.5 ± 2.1
same,number of anticipatory responses,Male Wistar rats [3]; [12],97.3 ± 16.2
same,number of correct responses,Male Wistar rats [3]; [12],62.7 ± 2.9
same,number of fault responses,Male Wistar rats [3]; [12],21.8 ± 1.9
same,number of missed responses,Male Wistar rats [3]; [12],15.6 ± 1.9
same,percentage of correct responses,Male Wistar rats [3]; [12],74.0 ± 2.5%
same,persevering responses,Male Wistar rats [3]; [12],10.7 ± 1.7
same,total number of responses,Male Wistar rats [3]; [12],84.4 ± 1.9
same,number of anticipatory responses,Male Wistar rats [3]; [13],148.3 ± 29.8
same,number of correct responses,Male Wistar rats [3]; [13],62.3 ± 2.9^
same,number of fault responses,Male Wistar rats [3]; [13],23.3 ± 2.3^
same,number of missed responses,Male Wistar rats [3]; [13],14.5 ± 1.8
same,percentage of correct responses,Male Wistar rats [3]; [13],72.7 ± 2.6^ %
same,persevering responses,Male Wistar rats [3]; [13],18.8 ± 4.2
same,total number of responses,Male Wistar rats [3]; [13],85.5 ± 1.8
same,effect on numbers of correct responses,Male Wistar rats [3]; summary of table 1,does not influence
same,effect on numbers of fault responses,Male Wistar rats [3]; summary of table 1,does not influence
same,% correct responses,[1]; [14],66.2 ± 3.8%
same,nr anticipatory resp,[1]; [14],116.8 ± 19.9
same,nr of correct resp,[1]; [14],53.8 ± 4.4
same,nr of fault resp,[1]; [14],25.9 ± 2.1
same,nr of missed resp,[1]; [14],20.3 ± 3.7
same,persevering resp,[1]; [14],20.2 ± 3.2
same,total nr of resp,[1]; [14],79.7 ± 3.7
same,% correct resp,[1]; [15],66.9 ± 3.5%
same,nr anticipatory resp,[1]; [15],133.8 ± 23.5
same,nr of correct resp,[1]; [15],53.3 ± 3.9
same,nr of fault resp,[1]; [15],25.9 ± 2.7
same,nr of missed resp,[1]; [15],20.8 ± 3.4
same,persevering resp,[1]; [15],16.9 ± 2.6
same,total nr of resp,[1]; [15],79.3 ± 3.4
